Assay results reported in patent publication US10800765B2, “Indole derivative used as CRTH2 inhibitor” (CHIA TAI TIANQING PHARMACEUTICAL GROUP CO., LTD., priority 2016, dated 2020).

molecular target: CRTH2 receptor (Homo sapiens (Human), UniProt Q9Y5Y4); assay: PathHunter CHO-K1 CRTH2 β-arrestin antagonist assay (PGD2 agonist); assay type: cell-based; details: PathHunter CHO-K1 CRTH2 β-arrestin cells; 30 min compound pre-incubation, then EC80 PGD2 for 90 min; chemiluminescence
Method: PathHunter® CHO-K1 CRTH2 β-arrestin cells (DiscoverX, catalogue number 93-0291C2) grew under standard conditions, and were inoculated into a white-wall 384-well microplate at a density of 5,000 cells/well. 20 μL of Cell Plating Reagent 1 was used in each well. Before the test, the cells were incubated overnight at 37° C./5% CO2. A test compound was serially diluted in DMSO with a dilution factor of 3-fold to give 8 concentrations of the test compound. Shortly before the test, the serially diluted test compound was further diluted with the test buffer to 5 times of the test concentration. 5 μL of the further diluted test compound was added to the cells, and the cells were incubated for 30 min at 37° C. The concentration of the solvent was 1%. 5 μL of 6×EC80 agonist (PGD2) buffer was added to the cells, and the cells were incubated for 90 min at 37° C. Measured signals were generated by one-time addition of 15 μL (50% v/v) of PathHunter detection mixture reagent and subsequent one-hour incubation. The microplate was read through the chemiluminescent signals of PerkinElmer Envision™ reader. Biological activity of the test compound was analyzed by CBIS data analysis suite (ChemInnovation, CA), and was denoted as IC50 value.

CRTH2 receptor, sequence (Q9Y5Y4 whole entry): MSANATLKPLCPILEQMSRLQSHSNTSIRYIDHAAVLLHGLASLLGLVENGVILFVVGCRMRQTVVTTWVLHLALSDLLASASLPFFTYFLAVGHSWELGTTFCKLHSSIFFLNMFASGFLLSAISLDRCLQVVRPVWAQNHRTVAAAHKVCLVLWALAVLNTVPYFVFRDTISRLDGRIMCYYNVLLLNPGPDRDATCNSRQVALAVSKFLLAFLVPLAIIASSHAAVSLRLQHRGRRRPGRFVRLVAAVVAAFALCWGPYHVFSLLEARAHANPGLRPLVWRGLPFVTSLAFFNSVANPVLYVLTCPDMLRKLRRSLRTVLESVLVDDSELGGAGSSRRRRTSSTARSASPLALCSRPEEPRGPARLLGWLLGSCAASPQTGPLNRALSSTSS

| IC50 | Structure (SMILES) |
| --- | --- |
| 100 to 1000 nM | Cc1c(Cc2ccc3c(c2)C=CS3(=O)=O)c2cc(F)ccc2n1CC(=O)O [Example 44] |
| 100 to 1000 nM | Cc1c(Cc2cccc3c2CCS3(=O)=O)c2cc(F)ccc2n1CC(=O)O [Example 49] |
| 100 to 1000 nM | Cc1c(Cc2ccc3c(c2)CCS3(=O)=O)c2ccccc2n1CC(=O)O [Example 50] |
| 100 to 1000 nM | Cc1c(Cc2ccc3c(c2)CCS3(=O)=O)c2cc(Cl)ccc2n1CC(=O)O [Example 51] |
| 100 to 1000 nM | Cc1ccc2c(c1)c(Cc1ccc3c(c1)CCS3(=O)=O)c(C)n2CC(=O)O [Example 52] |
| > 1000 nM | Cc1c(Cc2ccc3c(c2)CCS3(=O)=O)c2ccc(Cl)cc2n1CC(=O)O [Example 54] |
| 100 to 1000 nM | Cc1c(Cc2ccc3c(c2)CCS3(=O)=O)c2cc(Br)ccc2n1CC(=O)O [Example 55] |
| 100 to 1000 nM | Cc1c(Cc2ccc3c(c2)CCS3(=O)=O)c2cc([N+](=O)[O-])ccc2n1CC(=O)O [Example 57] |
| > 1000 nM | CC(=O)Nc1ccc2c(c1)c(Cc1ccc3c(c1)CCS3(=O)=O)c(C)n2CC(=O)O [Example 59] |
| 100 to 1000 nM | O=C(O)Cn1cc(Cc2ccc3c(c2)CCS3(=O)=O)c2cc(F)ccc21 [Example 60] |
| 100 to 1000 nM | Cc1c(Cc2cc3c(cc2C(F)(F)F)S(=O)(=O)CC3)c2cc(F)ccc2n1CC(=O)O [Example 61] |
| < 100 nM | Cc1c(Cc2ccc3c(c2)N=CNS3(=O)=O)c2cc(F)ccc2n1CC(=O)O [Example 66] |
| 100 to 1000 nM | Cc1c(Cc2ccc3c(c2)S(=O)(=O)CC3)c2cc(F)ccc2n1CC(=O)O [Example 74] |
| 100 to 1000 nM | Cc1c(Cc2cccc3c2S(=O)(=O)CC3)c2cc(F)ccc2n1CC(=O)O [Example 75] |

The remaining lines, values behind:

| Structure (SMILES) | IC50 |
| --- | --- |
| Cc1c(C2CS(=O)(=O)c3ccccc32)c2cc(F)ccc2n1CC(=O)O (stereo not drawn) [Example 2] | 100 to 1000 nM |
| Cc1c(C2=CS(=O)(=O)c3ccccc32)c2ccc(F)cc2n1CC(=O)O [Example 3] | 100 to 1000 nM |
| Cc1c(C2=CS(=O)(=O)c3ccccc32)c2cc(Cl)ccc2n1CC(=O)O [Example 5] | 100 to 1000 nM |
| Cc1c(C2=CCCS(=O)(=O)c3ccccc32)c2cc(F)ccc2n1CC(=O)O [Example 9] | 100 to 1000 nM |
| Cc1c(C2=CS(=O)(=O)c3ccncc32)c2cc(F)ccc2n1CC(=O)O [Example 10] | 100 to 1000 nM |
| Cc1c(C2=CS(=O)(=O)c3ncccc32)c2cc(F)ccc2n1CC(=O)O [Example 11] | 100 to 1000 nM |
| Cc1c(C2=CS(=O)(=O)c3ccc(C(F)(F)F)cc32)c2cc(F)ccc2n1CC(=O)O [Example 12] | 100 to 1000 nM |
| Cc1ccc2c(c1)c(C1=CS(=O)(=O)c3ccc(C(F)(F)F)cc31)c(C)n2CC(=O)O [Example 15] | 100 to 1000 nM |
| Cc1c(C2=CS(=O)(=O)c3ccc(C(F)(F)F)cc32)c2ccc(F)cc2n1CC(=O)O [Example 16] | 100 to 1000 nM |
| Cc1c(C2=CS(=O)(=O)c3cc(C(F)(F)F)ccc32)c2cc(Cl)ccc2n1CC(=O)O [Example 17] | 100 to 1000 nM |
| Cc1c(C2=CS(=O)(=O)c3cc(C(F)(F)F)ccc32)c2ccc(Cl)cc2n1CC(=O)O [Example 18] | 100 to 1000 nM |
| Cc1ccc2c(c1)c(C1=CS(=O)(=O)c3cc(C(F)(F)F)ccc31)c(C)n2CC(=O)O [Example 19] | 100 to 1000 nM |
| Cc1c(C2=CS(=O)(=O)c3cc(C(F)(F)F)ccc32)c2ccc(F)cc2n1CC(=O)O [Example 20] | 100 to 1000 nM |
| Cc1c(C2=CS(=O)(=O)c3cc(-c4ccncc4)ccc32)c2cc(F)ccc2n1CC(=O)O [Example 21] | 100 to 1000 nM |
| Cc1c(C2=CS(=O)(=O)c3cc(S(C)(=O)=O)ccc32)c2cc(F)ccc2n1CC(=O)O [Example 31] | < 100 nM |
| Cc1c(C2=CS(=O)(=O)c3ccc(Cl)cc32)c2cc(F)ccc2n1CC(=O)O [Example 33] | 100 to 1000 nM |
| Cc1c(C2=CS(=O)(=O)c3ccc(Cl)cc32)c2cc(Cl)ccc2n1CC(=O)O [Example 34] | 100 to 1000 nM |
| Cc1c(C2=CS(=O)(=O)c3ccc(Cl)cc32)c2ccc(C(F)(F)F)cc2n1CC(=O)O [Example 38] | 100 to 1000 nM |
| Cc1c(Cc2ccc3c(c2)CCS3(=O)=O)c2cc(F)ccc2n1CC(=O)O [Example 43] | < 100 nM |
| Cc1c(C(C)C2=CS(=O)(=O)c3ccccc32)c2cc(F)ccc2n1CC(=O)O (stereo not drawn) [Example 45] | 100 to 1000 nM |
| Cc1c(Cc2ccc3c(c2)C(F)C(F)(F)S3(=O)=O)c2cc(F)ccc2n1CC(=O)O (stereo not drawn) [Example 46] | 100 to 1000 nM |
| Cc1c(Cc2ccc3c(c2)N(C)S(=O)(=O)C=C3)c2cc(F)ccc2n1CC(=O)O [Example 48] | 100 to 1000 nM |
| Cc1c(Cc2cc3c(cc2C(F)(F)F)S(=O)(=O)CCC3(F)F)c2cc(F)ccc2n1CC(=O)O [Example 63] | 100 to 1000 nM |
| Cc1c(Cc2cc3c(cc2C(F)(F)F)S(=O)(=O)N(C)CC3(F)F)c2cc(F)ccc2n1CC(=O)O [Example 64] | 100 to 1000 nM |
| Cc1c(Cc2ccc3c(n2)C(F)(F)CCS3(=O)=O)c2cc(F)ccc2n1CC(=O)O [Example 65] | < 100 nM |
| Cc1c(Cc2ccc3c(c2)N(C)CN(C2CC2)S3(=O)=O)c2cc(F)ccc2n1CC(=O)O [Example 70] | < 100 nM |
| Cc1c(Cc2cc3c(cc2F)S(=O)(=O)N(C)CC3(F)F)c2cc(F)ccc2n1CC(=O)O [Example 78] | 100 to 1000 nM |
| Cc1c(Cc2ccc3c(c2)C(F)(F)CCS3(=O)=O)c2ncccc2n1CC(=O)O [Example 80] | 100 to 1000 nM |
